In publication PMC9608995 (Pharmaceutics, 2022):
Marks after values point to notes of the source that are not given here.

Columns and labels:
[1] = In vitro release, membrane diffusion procedure, with kinetic model fitting; assay type: physicochemical; conditions: PBS pH 7.4 with 0.2% w/v SLS, 37 °C
Description: In triplicate, the release behavior of PRZ from the assembled PMMs was investigated utilizing a type 1, SR 8 Plus USP dissolution tester apparatus (Hanson Research, Chatsworth, Los Angeles, CA, USA) employing the membrane diffusion procedure. […] For establishing the sink condition, 70 mL of phosphate-buffered saline (PBS) comprising 0.2% w/v sodium lauryl sulfate (SLS) was used as the release milieu after adjusting the pH to 7.4 and setting the temperature to 37 ± 0.5 °C [27]. After fixing the filled cylinders to the USP dissolution apparatus shafts, a revolving speed of 50 rpm was applied. About 1-mL aliquots were intermittently pulled out after 0.5, 1, 2, 4, 6, 8, 12 and lastly after 24 h as prescheduled time intervals. In order to maintain the volume of the dissolution milieu at a fixed level, each aspiration was recompensed with a fresh milieu. After applying the appropriate dilution, a spectrophotometer set at λmax 263 was used to quantify PRZ in the collected samples. Afterwards, PRZ accumulative % released, as mean (±SD) values, was graphed versus time. An analogous experimentation was conducted on 2 mL of 1.5 mg/mL free PRZ aqueous suspension for comparative purposes. […] Amplification of the coefficient of determination (R^2) made the grounds for picking the most appropriate arithmetic model.

H. nana [2] = experiment: Fecal egg count and egg reduction in H. nana-infected rats; assay type: in vivo, Hymenolepis nana; conditions: for Percentage reduction of egg count: 1st and 3rd day after treatment; for Mean egg count, 1st day after treatment / Mean egg count, 3rd day after treatment: fecal egg count per gram (EPG), n = 10
From the text: (§1) Mature H. nana worms were gathered from naturally-infected Mus musculus and kept in outbred rats. Thereafter, collection of the eggs was executed from infected rats that were euthanized on day 16th post infection. Infectious shell-free eggs were produced from the gravid segments of adult worms via agitating the egg suspension with 3 mm-diameter glass beads shortly prior to use.
(§2) The rats were males weighing 120–150 g and were free of parasitic infections. The rats were housed in a specific pathogen-free environment under standard conditions (22 ± 2 °C and 50–60% humidity) and were supplied food and water ad libitum. Rats of groups I-V were inoculated with shell-free eggs via the oral route using a stomach tube. Each animal received 3000 eggs in 0.1 mL of PBS pH 7.4. At day 16th post infection, a fecal examination was carried out and egg count per gram was detected using the McMaster technique. Group I was used as the infected non-treated control group. […] Animals of group VI were used as the non-infected non-treated control group. […] All procedures for agent administration, blood and tissue manipulation were in accordance with the Guide for the Care and Use of Laboratory Animals (8th edition) published in 2011 by the United States National Academy of Sciences.
Fecal egg count per gram (EPG) was estimated in the different groups on day 21 and 23 of the experiment. Fecal egg reduction percentage was calculated based on the formula [34]: Fecal egg reduction percentage=EPG before treatment−EPG post treatment/EPG before treatment×100

H. nana [3] = experiment: Worm burden and worm reduction in H. nana-infected rats; assay type: in vivo, Hymenolepis nana; conditions: for Percentage reduction of worm count: rats; for Worm count: worm numbers per rat, 23rd day, n = 10
From the text: as §1, §2
On the 23rd day of the experiment, the rats were euthanized and the small intestines were removed. The small intestines were longitudinally dissected and the worm burdens were assessed.

H. nana [4] = experiment: Intestinal histopathology (H&E) in H. nana-infected rats; assay type: in vivo, Hymenolepis nana
Description: as §2
Intestines of rats from different groups were gathered and instantly fixed for 24 h in neutrally buffered 10% formalin. Wet tissue sections were dehydrated through a series of alcohols and embedded in paraffin. Serial 4 μm thick cuts were made on all paraffin blocks by rotatory microtome. Thereafter, the cuts were fixed on glass slides and the paraffin was removed. […]

H. nana eggs = experiment: In vitro ovicidal activity, Fuchsin vital stain; assay type: cell-based, Hymenolepis nana; conditions: PRZ-PMMs finding at 50 µg/mL
Description: Three tubes for each concentration of each formulation were prepared. On clean glass slides, 100 µL of eggs of the different treatments were added and stained with 20 µL of freshly prepared Fuchsin for 10 min and examined under a light microscope.

[5] = Oral pharmacokinetics in rats, LC-MS/MS, non-compartmental analysis; conditions: male, Wistar, rat, 12.5 mg/kg
Description: Twelve male Wistar rats (120–150 g), procured from the animal facility of the Research Institute of Ophthalmology (Giza, Egypt), were arbitrarily allocated into two groups of six rats each. The polyacrylic cages, which the rats were lodged in, were maintained under controlled temperature (22 ± 2 °C) and relative humidity (55 ± 5%), in the presence of day and night cycled over 12 h intervals. The animals were provided with tap water ad libitum and standard forage till the night before dosing was commenced so that a 12 h starvation period was allowed. […] Next, centrifugation at 4000 rpm was directly applied to the tubes for 10 min in order to collect plasma. The isolated plasma samples were stored at −20 °C pending assay. The current study was reviewed and approved by our institutional Animal Ethics Committee of Beni-Suef University (protocol approval code: REC-A-PhBSU-20015).
A liquid chromatography–tandem mass spectrometry (LC–MS/MS) method was employed to assay the gathered plasma samples for PRZ. An Agilent eclipse C18 column (Agilent Technologies, Santa Clara, CA, USA) with the dimensions of 3.5 µm × 4.6 mm × 100 mm was employed for chromatographic separation utilizing the isocratic elution technique. The mobile phase, consisted of methanol and 0.1% formic acid (85:15, v/v), was delivered at a flow rate of 0.8 mL/min (split ratio 1/1). A sample injection volume of 10 µL was utilized. The temperatures of the column and autosampler oven were set to 40 °C and 15 °C, respectively. Electrospray ionization (ESI) in the positive mode was used for the operation of the mass spectrometer. Nitrogen was employed as the auxiliary and nebulizer gas. Source temperature, nebulizer gas, curtain gas and heater gas (i.e., the principal operation parameters) were adjusted at 500 °C, 60 psi, 25 psi and 60 psi, respectively. The ion spray voltage was tuned at 5500 V. Entrance potential, declustering potential, collision energy and collision exit potential (i.e., the compound parameters) were 10, 130, 15, 20 V for PRZ and 10, 91, 29, 12 V for diazepam as an internal standard (IS), respectively. Quantification was performed in the multiple reactions monitoring mode with m/z 313.18 → 203.10 for PRZ and m/z 285.31→193.00 for IS. Operation of the detector was at 1900 V. Analytical data processing was carried out through Analyst software (Version 1.4.2, Applied Biosystems, MDS SCIEX, Concord, ON, Canada).
A procedure based on liquid–liquid extraction was utilized. Briefly, to a plasma sample (100 µL), 10 µL of IS solution (50 ng/mL) was spiked and 1 mL of methyl-ter-butyl ether was added. The mixture was vortexed for 30 s to ensure homogeneity and then centrifugation at 3000 rpm was applied for 10 min. Into a conical glass tube, the transparent supernatant was transmitted and left at ambient temperature until the organic layer was entirely evaporated. The residues resulting from the evaporation process were then dissolved in the mobile phase and 10 µL of the solution was subsequently injected through the autosampler.
The non-compartmental pharmacokinetic analysis function built into the Excel Add-In software, PK Solver, was employed to analyze the time course of the PRZ concentration in rat plasma for estimation of pharmacokinetic parameters. The software assesses the maximal drug concentration (Cmax, ng/mL) and elapsed time to attain such concentration (Tmax, h) directly from the plasma concentration–time curve. The software adopts the trapezoidal rule method for quantifying the area under the curve (AUC) from 0 to t (AUC0–t, ng h/mL) and from 0 to infinity (AUC0–∞, ng h/mL).

[6] = cited from earlier work
[7] = cited from earlier work; remark: listed apart in the source
[8] = single oral dose 25 mg/kg, 25 mg/kg
[9] = single oral dose 25 mg/kg, listed as crude PRZ, 25 mg/kg

O=C(C1CCCCC1)N1CC(=O)N2CCc3ccccc3C2C1 (stereo not shown) [Crude PRZ, praziquantel]
Accumulative % released at 1 h [1]: 98.81 ± 5.94% | Percentage reduction of egg count (H. nana [2]; single oral dose 12.5 mg/kg): 90.6–91.1% | Reduction of eggs output in feces (H. nana [2]; single oral dose 12.5 mg/kg, 21st day): 90.6% | Reduction of eggs output in feces (H. nana [2]; single oral dose 12.5 mg/kg, 23rd day): 91.1% | Mean egg count, 1st day after treatment (H. nana [2]; single oral dose 12.5 mg/kg): 1033.20 ± 40.83 ^a,b,d,e | Mean egg count, 3rd day after treatment (H. nana [2]; single oral dose 12.5 mg/kg): 966.60 ± 40.83 ^a,b,d,e | Percentage reduction of egg count (H. nana [2]; [8]): 100% | Percentage reduction of egg count (H. nana [2]; [9]): 100% | Mean egg count, 1st day after treatment (H. nana [2]; single oral dose 25 mg/kg): 0.00 ± 0.00 ^a,c | Mean egg count, 3rd day after treatment (H. nana [2]; single oral dose 25 mg/kg): 0.00 ± 0.00 ^a,c | Percentage reduction of worm count (H. nana [3]; single oral dose 12.5 mg/kg, 12.5 mg/kg): 73.3% | Percentage reduction of worm count (H. nana [3]; single oral dose 12.5 mg/kg, listed as crude PRZ, 12.5 mg/kg): 73.3% | Percentage reduction of worm count (H. nana [3]; [8]): 100% | Percentage reduction of worm count (H. nana [3]; [9]): 100% | Worm count (H. nana [3]; single oral dose 12.5 mg/kg): 16.60 ± 1.14 ^a,b,d,e | Worm count (H. nana [3]; single oral dose 25 mg/kg): 0.00 ± 0.00 ^a | Intestinal histopathology, parasitic sections (H. nana [4]; 12.5 mg/kg oral): submucosal granulomatous reaction in association with the detected parasitic sections | Intestinal histopathology, parasitic sections (H. nana [4]; 25 mg/kg oral): no parasitic sections | Morphological changes of the eggs (H. nana eggs): mild shell deformities and embryo damage | half-life ([5]; in vivo): 1.11 ± 0.04 h | AUC(0-inf) ([5]; po): 566 ± 102 ng·h/mL | AUC(0-t) ([5]; po): 390 ± 95.3 ng·h/mL | Cmax ([5]; po): 290 ± 28.5 ng/mL | MRT ([5]; po): 3.05 ± 0.46 h | Tmax ([5]; po): 0.24 ± 0.03 h | k el ([5]; po): 0.000173 s⁻¹ | Intrinsic hydrosolubility [6]: ~ 0.3 mg/mL | Terminal half-life [7]: 1 to 1.5 h
